Measurements reported in patent US20110269811A1, “INHIBITORS OF SEMICARBAZIDE-SENSITIVE AMINE OXIDASE (SSAO) AND VAP-1 MEDIATED ADHESION USEFUL FOR TREATMENT AND PREVENTION OF DISEASES” (priority 2006, published 2011).

How the values were obtained:
[1] = system: LPS-induced lung inflammation; assay: LPS-induced pulmonary inflammation in rats; assay type: in vivo, Sprague Dawley rats; details: FIG. 14
Description: LPS-induced pulmonary inflammation in rats is a widely used model of airway inflammation ([…] et al. (2002) J. Pharmacol. Exp. Ther. 302:127). For the experiment described here, groups of Sprague-Dawley female rats (180-200 g) were orally dosed with either a compound of the invention (1 or 10 mg/kg), or with vehicle 1 h before the LPS challenge. Animals were placed in a plexiglass chamber and LPS at 100 μg/ml was nebulized for ten minutes. The nebulizer was turned off for ten minutes, then the chamber was evacuated for a further ten minutes. The animals remained in the chamber throughout this 30 minute cycle. Animals were then returned to their cages for the remainder of the experiment. Four hours after exposure to LPS animals were sacrificed and lungs excised. Lungs were washed with three cycles of 3 ml RPMI 1640 medium and the lavage fluid combined. Cells were pelleted by centrifugation and washed in the same medium. Total cell counts were performed using a hemacytometer. Differential cell counts were conducted on Cytospin-prepared slides stained with Diff-Quick stain. Standard morphological criteria were used to define mononuclear and neutrophilic cells. Using the above protocol, an experiment to assess the effects of compound I-1-Z was carried out. Groups of four female Sprague Dawley rats were orally administered PBS, compound I-1-Z at the indicated doses, or dexamethasone at 3 mg/kg. […]

A3 (h) = target: T1, A3 (h) (Homo sapiens, UniProt P0DMS8); assay: Receptor binding screen, [^125I]AB-MECA; details: 10 uM Concentration of Compound I-1-Z; read-out: Mean Value, percent inhibition of control specific binding: A3 (h)
T1 construct: expressed in transfected cells; host or cells: HEK-293 cells
T1 sequence (P0DMS8 whole entry): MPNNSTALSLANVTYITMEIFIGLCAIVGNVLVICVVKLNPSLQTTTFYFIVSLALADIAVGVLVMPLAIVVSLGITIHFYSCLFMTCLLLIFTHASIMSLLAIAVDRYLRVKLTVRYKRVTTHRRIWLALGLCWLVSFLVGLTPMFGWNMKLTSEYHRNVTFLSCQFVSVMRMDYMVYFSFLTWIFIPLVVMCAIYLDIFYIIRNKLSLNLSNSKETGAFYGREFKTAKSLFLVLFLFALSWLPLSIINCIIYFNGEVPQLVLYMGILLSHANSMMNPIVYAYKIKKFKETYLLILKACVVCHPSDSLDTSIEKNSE

D5 (h) = target: T2, D5 (h) (Homo sapiens, UniProt P21918); assay: Receptor binding screen, [^3H]SCH 23390; details: 10 uM Concentration of Compound I-1-Z; read-out: Mean Value, percent inhibition of control specific binding: D5 (h)
T2 construct: expressed in transfected cells; host or cells: GH4 cells
T2 sequence (P21918 whole entry): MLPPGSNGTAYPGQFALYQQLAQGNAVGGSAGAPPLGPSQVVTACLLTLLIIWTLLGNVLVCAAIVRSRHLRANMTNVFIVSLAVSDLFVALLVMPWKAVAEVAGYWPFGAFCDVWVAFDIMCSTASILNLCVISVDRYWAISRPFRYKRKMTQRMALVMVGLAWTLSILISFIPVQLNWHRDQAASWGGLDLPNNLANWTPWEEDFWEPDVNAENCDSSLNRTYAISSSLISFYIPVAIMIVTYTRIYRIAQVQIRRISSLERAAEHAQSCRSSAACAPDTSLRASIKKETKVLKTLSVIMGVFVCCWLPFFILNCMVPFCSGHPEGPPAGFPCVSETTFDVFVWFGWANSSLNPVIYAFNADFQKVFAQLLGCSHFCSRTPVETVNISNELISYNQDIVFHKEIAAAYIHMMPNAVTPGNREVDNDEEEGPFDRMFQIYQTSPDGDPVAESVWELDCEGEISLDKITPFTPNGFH

GAL1 (h) = target: T3, GAL1 (h) (Homo sapiens, UniProt P47211); assay: Receptor binding screen, [^125I]galanin; details: 10 uM Concentration of Compound I-1-Z; read-out: Mean Value, percent inhibition of control specific binding: GAL1 (h)
T3 construct: expressed in transfected cells; host or cells: HEK-293 cells
T3 sequence (P47211 whole entry): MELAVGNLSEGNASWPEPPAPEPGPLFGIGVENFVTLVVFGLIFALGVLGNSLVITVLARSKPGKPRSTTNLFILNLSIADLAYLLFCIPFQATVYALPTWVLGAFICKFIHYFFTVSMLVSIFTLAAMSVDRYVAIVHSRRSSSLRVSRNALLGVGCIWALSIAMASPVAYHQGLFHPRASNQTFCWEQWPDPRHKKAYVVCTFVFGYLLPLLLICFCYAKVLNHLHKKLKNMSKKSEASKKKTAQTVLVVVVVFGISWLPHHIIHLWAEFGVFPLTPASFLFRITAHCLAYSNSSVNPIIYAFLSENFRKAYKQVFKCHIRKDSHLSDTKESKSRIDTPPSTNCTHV

M2 (h) = target: T4, M2 (h) (Homo sapiens, UniProt P08172); assay: Receptor binding screen, [^3H]AF-DX 384; details: 10 uM Concentration of Compound I-1-Z; read-out: Mean Value, percent inhibition of control specific binding: M2 (h)
T4 construct: expressed in transfected cells; host or cells: CHO cells
T4 sequence (P08172 whole entry): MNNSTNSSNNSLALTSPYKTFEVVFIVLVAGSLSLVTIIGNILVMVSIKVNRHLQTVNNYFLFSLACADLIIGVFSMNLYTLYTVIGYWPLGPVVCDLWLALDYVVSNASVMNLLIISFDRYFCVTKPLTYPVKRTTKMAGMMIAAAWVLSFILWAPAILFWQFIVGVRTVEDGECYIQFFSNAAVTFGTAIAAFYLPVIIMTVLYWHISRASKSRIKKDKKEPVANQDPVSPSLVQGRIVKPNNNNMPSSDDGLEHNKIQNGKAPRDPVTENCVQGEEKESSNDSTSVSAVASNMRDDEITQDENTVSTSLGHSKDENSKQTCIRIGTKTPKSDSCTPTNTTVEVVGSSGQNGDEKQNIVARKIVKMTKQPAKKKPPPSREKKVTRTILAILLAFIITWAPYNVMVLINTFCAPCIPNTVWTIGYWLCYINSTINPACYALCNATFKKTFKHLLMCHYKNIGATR

NK3 (h) = target: T5, NK3 (h) (Homo sapiens, UniProt P29371); assay: Receptor binding screen, [^3H]SR 142801; details: 10 uM Concentration of Compound I-1-Z; read-out: Mean Value, percent inhibition of control specific binding: NK3 (h)
T5 construct: expressed in transfected cells; host or cells: CHO cells
T5 sequence (P29371 whole entry): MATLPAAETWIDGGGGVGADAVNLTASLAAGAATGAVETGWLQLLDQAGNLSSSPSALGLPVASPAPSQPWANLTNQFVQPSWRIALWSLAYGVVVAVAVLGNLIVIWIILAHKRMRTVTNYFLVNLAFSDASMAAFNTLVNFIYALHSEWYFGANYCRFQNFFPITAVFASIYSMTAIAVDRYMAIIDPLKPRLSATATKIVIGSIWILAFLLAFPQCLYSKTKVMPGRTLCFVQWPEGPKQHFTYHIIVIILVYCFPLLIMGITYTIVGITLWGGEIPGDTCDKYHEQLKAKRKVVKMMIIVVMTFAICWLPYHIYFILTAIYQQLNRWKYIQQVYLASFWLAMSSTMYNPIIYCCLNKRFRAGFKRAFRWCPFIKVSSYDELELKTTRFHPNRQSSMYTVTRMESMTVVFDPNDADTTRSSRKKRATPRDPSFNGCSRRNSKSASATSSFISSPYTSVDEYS

Y2 (h) = target: T6, Y2 (h) (Homo sapiens, UniProt P49146); assay: Receptor binding screen, [^125I]peptide YY, KAN-TS cells; details: 10 uM Concentration of Compound I-1-Z; read-out: Mean Value, percent inhibition of control specific binding: Y2 (h)
T6 construct: KAN-TS cells; endogenous in cells; host or cells: KAN-TS cells
T6 sequence (P49146 whole entry): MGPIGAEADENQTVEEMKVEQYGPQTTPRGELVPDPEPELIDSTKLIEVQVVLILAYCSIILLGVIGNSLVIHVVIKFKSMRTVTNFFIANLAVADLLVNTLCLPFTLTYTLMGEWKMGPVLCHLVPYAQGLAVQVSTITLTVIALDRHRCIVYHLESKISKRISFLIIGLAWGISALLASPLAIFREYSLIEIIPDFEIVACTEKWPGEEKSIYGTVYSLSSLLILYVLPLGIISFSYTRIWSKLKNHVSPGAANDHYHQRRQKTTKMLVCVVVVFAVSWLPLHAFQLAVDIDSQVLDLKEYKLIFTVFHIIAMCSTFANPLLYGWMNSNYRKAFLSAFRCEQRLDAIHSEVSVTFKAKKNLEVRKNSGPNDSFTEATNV

δ2 (h) (DOP) = target: T7, δ2 (h) (DOP) (Homo sapiens, UniProt P41143); assay: Receptor binding screen, [^3H]DADLE; details: 10 uM Concentration of Compound I-1-Z; read-out: Mean Value, percent inhibition of control specific binding: δ2 (h) (DOP)
T7 construct: expressed in transfected cells; host or cells: CHO cells
T7 sequence (P41143 whole entry): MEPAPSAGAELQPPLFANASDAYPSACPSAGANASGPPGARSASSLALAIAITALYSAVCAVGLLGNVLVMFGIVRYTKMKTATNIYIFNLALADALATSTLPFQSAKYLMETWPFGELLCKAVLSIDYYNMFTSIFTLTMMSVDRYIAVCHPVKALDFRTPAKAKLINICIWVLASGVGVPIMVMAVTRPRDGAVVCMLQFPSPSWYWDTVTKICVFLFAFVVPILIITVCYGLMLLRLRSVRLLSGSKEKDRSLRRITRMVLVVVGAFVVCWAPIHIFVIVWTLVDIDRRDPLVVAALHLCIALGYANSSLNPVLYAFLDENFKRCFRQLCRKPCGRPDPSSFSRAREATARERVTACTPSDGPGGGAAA
Description: For Table 4 below, the specific ligand binding to the receptors is defined as the difference between the total binding and the nonspecific binding determined in the presence of an excess of unlabelled ligand. The results are expressed as a percent inhibition of control specific binding obtained in the presence of Compound I-1-Z. The IC50 values (concentration causing a half-maximal inhibition of control specific binding) and Hill coefficients (nH) were determined by non-linear regression analysis of the competition curves using Hill equation curve fitting. The inhibition constants (Ki) were calculated from the Cheng Prusoff equation (Ki=IC50/(1+(L/KD)), where L=concentration of radioligand in the assay, and KD=affinity of the radioligand for the receptor). In each experiment, the respective reference compound was tested concurrently with Compound I-1-Z in order to assess the assay suitability.

TXA2/PGH2 (h) (TP) = target: T8, TXA2/PGH2 (h) (TP) (Homo sapiens, UniProt P21731); assay: Receptor binding screen, [^3H]SQ 29548, human platelets; details: 10 uM Concentration of Compound I-1-Z; read-out: Mean Value, percent inhibition of control specific binding: TXA2/PGH2 (h) (TP)
T8 construct: human platelets; endogenous in cells; host or cells: human platelets
T8 sequence (P21731 whole entry): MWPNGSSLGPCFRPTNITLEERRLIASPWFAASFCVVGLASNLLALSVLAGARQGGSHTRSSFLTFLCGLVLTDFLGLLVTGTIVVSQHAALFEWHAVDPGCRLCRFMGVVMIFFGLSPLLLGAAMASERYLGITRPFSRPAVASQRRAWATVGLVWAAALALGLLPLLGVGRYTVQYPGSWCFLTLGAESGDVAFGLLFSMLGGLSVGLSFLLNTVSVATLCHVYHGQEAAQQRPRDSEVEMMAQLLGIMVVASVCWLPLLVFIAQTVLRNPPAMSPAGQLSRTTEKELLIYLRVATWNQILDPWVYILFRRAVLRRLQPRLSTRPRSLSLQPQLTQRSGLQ

5-HT2A (h) = target: T9, 5-HT2A (h) (Homo sapiens, UniProt P28223); assay: Receptor binding screen, [^3H]ketanserin; details: 10 uM Concentration of Compound I-1-Z; read-out: Mean Value, percent inhibition of control specific binding: 5-HT2A (h)
T9 construct: expressed in transfected cells; host or cells: HEK-293 cells
T9 sequence (P28223 whole entry): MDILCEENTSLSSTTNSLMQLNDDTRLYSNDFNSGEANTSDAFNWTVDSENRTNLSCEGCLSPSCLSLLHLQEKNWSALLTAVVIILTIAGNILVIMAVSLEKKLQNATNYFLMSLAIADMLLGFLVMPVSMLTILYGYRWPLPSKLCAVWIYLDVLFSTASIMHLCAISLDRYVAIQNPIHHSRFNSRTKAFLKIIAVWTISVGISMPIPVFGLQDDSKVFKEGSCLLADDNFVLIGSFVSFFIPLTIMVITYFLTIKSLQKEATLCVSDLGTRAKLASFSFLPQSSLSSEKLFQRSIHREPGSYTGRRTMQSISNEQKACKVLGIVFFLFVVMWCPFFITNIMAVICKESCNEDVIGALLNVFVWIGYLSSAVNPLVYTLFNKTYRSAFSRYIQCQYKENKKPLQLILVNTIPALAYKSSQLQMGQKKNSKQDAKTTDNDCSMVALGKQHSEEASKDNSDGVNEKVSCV

Compound: COc1ccc(C/C(=C/F)CN)cc1.Cl [Compound I-1-Z, (Z)-3-Fluoro-2-(4-methoxybenzyl)-allylamine hydrochloride]
- LPS-induced lung inflammation ([1]; 1 mg/kg orally before nebulized LPS): effective in reducing LPS-induced lung inflammation
- LPS-induced lung inflammation ([1]; 10 mg/kg orally before nebulized LPS): effective in reducing LPS-induced lung inflammation
- inhibition at 10 µM (A3 (h)): 1%
- inhibition at 10 µM (D5 (h)): -10%
- inhibition at 10 µM (GAL1 (h)): 0%
- inhibition at 10 µM (M2 (h)): 3%
- inhibition at 10 µM (NK3 (h)): 1%
- inhibition at 10 µM (Y2 (h)): 11%
- inhibition at 10 µM (δ2 (h) (DOP)): 0%
- inhibition at 10 µM (TXA2/PGH2 (h) (TP)): 4%
- inhibition at 10 µM (5-HT2A (h)): -4%
